Laboratory results as given in ChEMBL document CHEMBL1201862, “PubChem BioAssay data set” (2004).
Active and inactive are the calls of the source.

Legend:
[1] = target: Adenosylmethionine-8-amino-7-oxononanoate aminotransferase (Mycobacterium tuberculosis, UniProt P9WQ81); test: Mycobacterium tuberculosis BioA enzyme inhibitor Measured in Biochemical System Using Plate Reader - 2163-02_Inhibitor_Dose_CherryPick_Activity.; format: functional, Mycobacterium tuberculosis UT205
cells [2] = format: functional, cell-based
cells [3] = format: functional, cell-based; remark: listed apart in the source
[4] = target: Peroxisome proliferator-activated receptor gamma/Nuclear receptor coactivator 1 (Homo sapiens, UniProt P37231); test: (§1) TR-FRET dose response biochemical High Throughput Screening assay for agonists of the steroid receptor coactivator 1 (SRC-1) recruitment by the peroxisome proliferator-activated receptor gamma (PPAR gamma): non-selective agonists. [Related pubchem assays (depositor defined):AID1300, AID1808, AID504735, AID631]; format: protein assay
[5] = target: Peroxisome proliferator-activated receptor gamma/Nuclear receptor coactivator 3 (Homo sapiens, UniProt P37231); test: as §1, with “3 (SRC-3)” for “1 (SRC-1)”, “assays: 1301 (Confirmation screen.), 1048 (Primary screen.)]” for “assays (depositor defined):AID1300, AID1808, AID504735, AID631]”; format: functional
Protein Wnt-3a = Protein Wnt-3a (Mus musculus, UniProt P27467); test: antagonism of Wnt3a pathway luciferase reporter – Wnt-LIGHT cells, luminescence, selectivity assay for Gli-SUFU antagonist project, dose response (AID 651570); format: functional; settings: read-out: IC50_Mean;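 further: Wnt-LIGHT reporter cells stimulated with conditioned medium from Wnt3a-producing cells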
Protein Wnt-3a, sequence (P27467 whole entry): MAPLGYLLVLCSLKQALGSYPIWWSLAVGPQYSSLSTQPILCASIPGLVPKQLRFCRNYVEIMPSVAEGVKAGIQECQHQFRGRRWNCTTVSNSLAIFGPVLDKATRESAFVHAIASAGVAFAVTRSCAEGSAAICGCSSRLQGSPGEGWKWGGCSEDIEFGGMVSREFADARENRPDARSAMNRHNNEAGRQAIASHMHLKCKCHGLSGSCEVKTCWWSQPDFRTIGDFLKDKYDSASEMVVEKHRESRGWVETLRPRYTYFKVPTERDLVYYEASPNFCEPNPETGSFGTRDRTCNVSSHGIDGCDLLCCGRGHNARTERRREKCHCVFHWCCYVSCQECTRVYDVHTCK

[6] = target: Peroxisome proliferator-activated receptor gamma/Nuclear receptor coactivator 2 (Homo sapiens, UniProt P37231); test: TR-FRET dose response biochemical High Throughput Screening assay for agonists of the steroid receptor coactivator 2 (SRC-2) recruitment by the peroxisome proliferator-activated receptor gamma (PPAR gamma): non-selective agonists. [Related pubchem assays: 1297, 1032 ]; format: functional
Peroxisome proliferator-activated receptor gamma/Nuclear receptor coactivator 2, sequence (P37231 whole entry, the tested form may be a part): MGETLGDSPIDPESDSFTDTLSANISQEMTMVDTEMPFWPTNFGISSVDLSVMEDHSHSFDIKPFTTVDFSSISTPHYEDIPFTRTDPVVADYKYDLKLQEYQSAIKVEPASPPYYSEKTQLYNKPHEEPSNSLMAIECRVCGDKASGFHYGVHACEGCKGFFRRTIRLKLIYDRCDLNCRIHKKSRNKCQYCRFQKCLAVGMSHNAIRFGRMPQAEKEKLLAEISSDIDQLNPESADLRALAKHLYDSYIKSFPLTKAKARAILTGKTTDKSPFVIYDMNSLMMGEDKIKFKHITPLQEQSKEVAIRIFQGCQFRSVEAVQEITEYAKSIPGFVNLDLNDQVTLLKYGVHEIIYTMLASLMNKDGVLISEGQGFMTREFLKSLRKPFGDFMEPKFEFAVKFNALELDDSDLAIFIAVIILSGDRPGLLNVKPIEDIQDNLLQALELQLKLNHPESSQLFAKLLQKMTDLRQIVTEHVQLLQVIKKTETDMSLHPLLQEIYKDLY
Peroxisome proliferator-activated receptor gamma/Nuclear receptor coactivator 2, sequence (Q15596 whole entry, further chain, the tested form may be a part): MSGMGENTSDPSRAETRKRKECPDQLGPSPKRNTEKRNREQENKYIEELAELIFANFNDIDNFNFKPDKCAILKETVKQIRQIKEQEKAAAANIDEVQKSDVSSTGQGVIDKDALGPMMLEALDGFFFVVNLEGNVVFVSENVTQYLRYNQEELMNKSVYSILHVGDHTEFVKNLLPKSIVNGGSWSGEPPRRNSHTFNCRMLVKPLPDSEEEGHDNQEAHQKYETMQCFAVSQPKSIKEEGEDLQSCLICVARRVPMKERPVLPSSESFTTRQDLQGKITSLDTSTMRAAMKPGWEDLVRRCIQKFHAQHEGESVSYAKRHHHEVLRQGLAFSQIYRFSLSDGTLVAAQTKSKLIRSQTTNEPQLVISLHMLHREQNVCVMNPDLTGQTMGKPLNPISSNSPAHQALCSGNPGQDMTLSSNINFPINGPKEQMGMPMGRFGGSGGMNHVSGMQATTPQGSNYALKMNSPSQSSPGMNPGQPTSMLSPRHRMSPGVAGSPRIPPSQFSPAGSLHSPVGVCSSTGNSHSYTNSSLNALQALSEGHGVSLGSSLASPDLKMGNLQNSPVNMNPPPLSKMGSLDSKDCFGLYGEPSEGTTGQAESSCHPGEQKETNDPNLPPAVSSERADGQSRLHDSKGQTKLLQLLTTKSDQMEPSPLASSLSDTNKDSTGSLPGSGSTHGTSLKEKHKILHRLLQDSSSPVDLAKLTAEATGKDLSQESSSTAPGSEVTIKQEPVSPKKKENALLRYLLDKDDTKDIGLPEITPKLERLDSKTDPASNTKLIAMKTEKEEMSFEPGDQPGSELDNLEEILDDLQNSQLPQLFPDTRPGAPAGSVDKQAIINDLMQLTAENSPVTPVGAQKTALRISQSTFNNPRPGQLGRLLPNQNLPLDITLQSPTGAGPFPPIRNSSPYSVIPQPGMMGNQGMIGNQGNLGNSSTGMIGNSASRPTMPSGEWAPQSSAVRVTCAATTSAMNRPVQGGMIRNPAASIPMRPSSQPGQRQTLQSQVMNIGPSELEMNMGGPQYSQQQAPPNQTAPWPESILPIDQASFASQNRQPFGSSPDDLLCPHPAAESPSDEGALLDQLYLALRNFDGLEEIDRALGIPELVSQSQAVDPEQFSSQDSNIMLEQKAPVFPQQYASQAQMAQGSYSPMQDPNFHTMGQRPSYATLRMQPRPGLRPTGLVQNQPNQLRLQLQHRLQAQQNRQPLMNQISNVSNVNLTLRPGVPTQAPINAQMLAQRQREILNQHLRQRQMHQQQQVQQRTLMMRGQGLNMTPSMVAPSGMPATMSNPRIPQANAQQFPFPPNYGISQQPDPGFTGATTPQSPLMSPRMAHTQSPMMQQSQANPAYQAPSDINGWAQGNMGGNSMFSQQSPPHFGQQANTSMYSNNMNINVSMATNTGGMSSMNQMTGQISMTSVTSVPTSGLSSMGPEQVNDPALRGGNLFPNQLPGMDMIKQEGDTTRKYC

[7] = target: Photoreceptor-specific nuclear receptor (Homo sapiens, UniProt Q9Y5X4); format: functional, cell-based;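 further: CHO-S cells with Gal4-NCOR and VP16-NR2E3 two-hybrid luciferase reporter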
Photoreceptor-specific nuclear receptor, sequence (Q9Y5X4 whole entry, the tested form may be a part): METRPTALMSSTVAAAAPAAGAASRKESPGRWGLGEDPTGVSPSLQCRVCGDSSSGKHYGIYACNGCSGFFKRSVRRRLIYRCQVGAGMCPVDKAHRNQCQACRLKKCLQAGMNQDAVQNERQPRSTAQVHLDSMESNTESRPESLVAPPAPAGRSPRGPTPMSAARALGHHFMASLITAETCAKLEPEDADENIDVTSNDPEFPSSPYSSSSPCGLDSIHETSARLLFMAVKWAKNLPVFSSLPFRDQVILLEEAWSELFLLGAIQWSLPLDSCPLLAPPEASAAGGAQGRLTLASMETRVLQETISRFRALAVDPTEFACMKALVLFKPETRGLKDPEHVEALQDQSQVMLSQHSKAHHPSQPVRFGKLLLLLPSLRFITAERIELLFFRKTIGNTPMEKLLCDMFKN

[8] = target: T1, Corticotropin-releasing factor receptor 2/Corticotropin-releasing factor-binding protein (Homo sapiens, UniProt P24387+Q13324); test: Dose Response confirmation of uHTS hits for small molecule antagonists of the CRF-binding protein and CRF-R2 receptor complex.; format: functional; settings: read-out: IC50_Mean
T1 sequence (Q13324 whole entry): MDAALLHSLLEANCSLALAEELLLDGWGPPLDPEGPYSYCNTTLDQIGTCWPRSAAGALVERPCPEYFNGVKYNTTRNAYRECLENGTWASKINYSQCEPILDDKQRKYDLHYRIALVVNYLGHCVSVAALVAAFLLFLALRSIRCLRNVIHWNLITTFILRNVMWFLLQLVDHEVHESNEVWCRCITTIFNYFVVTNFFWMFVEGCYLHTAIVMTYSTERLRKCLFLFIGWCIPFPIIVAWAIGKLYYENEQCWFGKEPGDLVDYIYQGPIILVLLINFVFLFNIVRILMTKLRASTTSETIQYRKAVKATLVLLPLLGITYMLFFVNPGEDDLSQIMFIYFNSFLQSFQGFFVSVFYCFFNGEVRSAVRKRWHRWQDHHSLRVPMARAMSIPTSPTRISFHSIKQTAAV
T1 sequence (P24387 whole entry): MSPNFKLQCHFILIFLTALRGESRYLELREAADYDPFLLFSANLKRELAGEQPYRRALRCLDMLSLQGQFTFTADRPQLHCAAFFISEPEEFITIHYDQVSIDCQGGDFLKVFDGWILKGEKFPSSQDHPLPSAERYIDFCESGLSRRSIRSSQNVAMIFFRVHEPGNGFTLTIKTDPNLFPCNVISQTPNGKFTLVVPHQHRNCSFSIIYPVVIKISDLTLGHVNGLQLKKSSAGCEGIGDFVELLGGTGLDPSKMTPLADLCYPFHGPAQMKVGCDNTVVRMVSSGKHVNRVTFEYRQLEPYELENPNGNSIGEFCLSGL

[9] = target: T1, Corticotropin-releasing factor receptor 2/Corticotropin-releasing factor-binding protein; test: activators of CRF receptor 2 with binding protein – uHTS hits, confirmation (AID 602473); format: functional; settings: read-out: EC50_Mean
[10] = blockers of CRF-binding protein–CRF-R2 complex – cell-based, uHTS hits, 384-well, dose response (AID 651639); format: functional, Homo sapiens; settings: read-out: IC50_Mean
Caspase-3 = target: T2, Caspase-3 (Homo sapiens, UniProt P42574); test: inhibition of recombinant caspase-3 activity – biochemical, luminescence, set 2, selectivity assay for SENP protease inhibitor project, SAR follow-up (AID 588599); format: functional
T2 sequence (P42574 whole entry): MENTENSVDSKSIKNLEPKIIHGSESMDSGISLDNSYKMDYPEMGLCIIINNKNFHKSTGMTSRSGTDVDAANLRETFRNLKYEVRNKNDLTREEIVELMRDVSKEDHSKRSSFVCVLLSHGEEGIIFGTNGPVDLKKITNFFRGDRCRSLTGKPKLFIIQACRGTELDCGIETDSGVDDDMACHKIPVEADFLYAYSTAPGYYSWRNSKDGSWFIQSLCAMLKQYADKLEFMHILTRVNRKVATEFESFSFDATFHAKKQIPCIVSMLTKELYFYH

[11] = target: T3, Sentrin-specific protease 6 (Homo sapiens, UniProt Q9GZR1); test: inhibition of human SENP6 catalytic domain – biochemical, luminescence, set 2, SAR follow-up (AID 588598); format: functional
T3 sequence (Q9GZR1 whole entry): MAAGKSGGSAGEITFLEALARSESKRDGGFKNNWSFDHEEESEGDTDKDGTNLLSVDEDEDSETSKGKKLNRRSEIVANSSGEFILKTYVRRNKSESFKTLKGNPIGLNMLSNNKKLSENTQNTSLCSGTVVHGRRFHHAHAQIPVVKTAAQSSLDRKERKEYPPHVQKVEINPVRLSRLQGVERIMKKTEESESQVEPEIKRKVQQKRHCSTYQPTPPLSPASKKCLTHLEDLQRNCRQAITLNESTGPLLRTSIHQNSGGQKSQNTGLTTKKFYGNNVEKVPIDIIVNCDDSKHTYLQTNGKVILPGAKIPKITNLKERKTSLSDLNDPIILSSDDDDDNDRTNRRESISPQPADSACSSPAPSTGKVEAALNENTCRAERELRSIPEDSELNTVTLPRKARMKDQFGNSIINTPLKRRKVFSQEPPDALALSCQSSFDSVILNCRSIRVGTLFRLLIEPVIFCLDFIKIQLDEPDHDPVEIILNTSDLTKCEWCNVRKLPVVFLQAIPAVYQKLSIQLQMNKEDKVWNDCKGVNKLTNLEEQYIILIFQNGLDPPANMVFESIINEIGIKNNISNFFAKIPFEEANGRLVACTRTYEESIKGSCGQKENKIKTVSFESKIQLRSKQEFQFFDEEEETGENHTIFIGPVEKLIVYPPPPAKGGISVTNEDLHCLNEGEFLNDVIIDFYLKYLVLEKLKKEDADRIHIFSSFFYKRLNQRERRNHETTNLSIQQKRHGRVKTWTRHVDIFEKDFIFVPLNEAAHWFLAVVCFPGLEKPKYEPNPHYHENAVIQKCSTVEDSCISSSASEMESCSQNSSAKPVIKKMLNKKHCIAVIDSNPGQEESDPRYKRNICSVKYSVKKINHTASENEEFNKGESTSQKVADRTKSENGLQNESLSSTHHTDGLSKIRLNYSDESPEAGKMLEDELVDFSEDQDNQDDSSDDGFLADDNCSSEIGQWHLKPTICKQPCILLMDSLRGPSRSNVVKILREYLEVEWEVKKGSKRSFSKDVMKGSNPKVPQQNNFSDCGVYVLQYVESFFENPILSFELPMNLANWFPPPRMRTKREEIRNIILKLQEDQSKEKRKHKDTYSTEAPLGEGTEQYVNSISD

[12] = target: T4, Sentrin-specific protease 7 (Homo sapiens, UniProt Q9BQF6); test: inhibition of human SENP7 cleavage activity – biochemical, luminescence, set 2, SAR follow-up (AID 588600); format: functional
T4 sequence (Q9BQF6 whole entry): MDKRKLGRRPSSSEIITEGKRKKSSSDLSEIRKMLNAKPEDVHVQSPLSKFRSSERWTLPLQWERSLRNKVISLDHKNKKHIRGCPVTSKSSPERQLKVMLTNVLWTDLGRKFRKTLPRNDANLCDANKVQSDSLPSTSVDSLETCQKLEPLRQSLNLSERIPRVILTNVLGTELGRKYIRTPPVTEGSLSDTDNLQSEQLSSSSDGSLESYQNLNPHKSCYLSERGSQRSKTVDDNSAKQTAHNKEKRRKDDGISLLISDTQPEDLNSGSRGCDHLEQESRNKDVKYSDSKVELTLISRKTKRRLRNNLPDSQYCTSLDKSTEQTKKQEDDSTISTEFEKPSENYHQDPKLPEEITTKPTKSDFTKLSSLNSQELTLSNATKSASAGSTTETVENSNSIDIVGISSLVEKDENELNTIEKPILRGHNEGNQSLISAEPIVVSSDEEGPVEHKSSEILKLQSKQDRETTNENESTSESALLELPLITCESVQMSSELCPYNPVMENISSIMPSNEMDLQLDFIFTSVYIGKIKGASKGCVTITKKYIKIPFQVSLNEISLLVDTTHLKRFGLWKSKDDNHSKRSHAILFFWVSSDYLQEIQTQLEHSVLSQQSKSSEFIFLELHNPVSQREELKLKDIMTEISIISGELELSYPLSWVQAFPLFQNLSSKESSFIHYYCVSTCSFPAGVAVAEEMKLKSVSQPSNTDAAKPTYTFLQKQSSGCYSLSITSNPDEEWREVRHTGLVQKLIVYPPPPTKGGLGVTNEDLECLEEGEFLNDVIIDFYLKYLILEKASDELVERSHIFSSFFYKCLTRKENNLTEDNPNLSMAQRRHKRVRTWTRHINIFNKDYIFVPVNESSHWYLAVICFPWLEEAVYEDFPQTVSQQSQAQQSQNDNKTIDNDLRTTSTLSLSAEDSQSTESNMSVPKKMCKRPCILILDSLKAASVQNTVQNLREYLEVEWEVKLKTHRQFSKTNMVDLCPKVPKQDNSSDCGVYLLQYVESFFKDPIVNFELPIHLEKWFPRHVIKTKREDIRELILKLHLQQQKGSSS

[13] = target: T5, Sentrin-specific protease 8 (Homo sapiens, UniProt Q96LD8); test: inhibition of sentrin protease 8 – biochemical, luminescence, set 2, SAR follow-up (AID 588601); format: functional
T5 sequence (Q96LD8 whole entry): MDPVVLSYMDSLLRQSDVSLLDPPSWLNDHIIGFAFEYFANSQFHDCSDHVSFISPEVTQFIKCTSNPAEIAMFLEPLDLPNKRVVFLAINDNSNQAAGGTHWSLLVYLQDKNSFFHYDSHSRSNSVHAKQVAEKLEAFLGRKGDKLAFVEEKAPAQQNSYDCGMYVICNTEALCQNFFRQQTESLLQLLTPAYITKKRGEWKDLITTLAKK

H9c2 = test: cells; format: functional, cell-based; settings: Rattus norvegicus, H9c2, Myocardium;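 further: confirmatory concentration-response retest of ultra-high-throughput screening hits for modulation of myocardial damage; cell death induced by hydrogen peroxide oxidative stress; compound pretreatment for 60 min then peroxide exposure for 2 h; potency is for protecting the cells against peroxide damage rather than for killing them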
Melanocortin receptor 4 = Melanocortin receptor 4 (Homo sapiens, UniProt P32245); format: functional, cell-based;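 further: Cell-based assay with luminescence read-out, confirmatory dose-response testing for agonist activity of biased ligands at MC4R; human U2OS cells with tagged receptor and beta-arrestin; potency of agonists that increase receptor coupling to beta-arrestin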
Melanocortin receptor 4, sequence (P32245 whole entry): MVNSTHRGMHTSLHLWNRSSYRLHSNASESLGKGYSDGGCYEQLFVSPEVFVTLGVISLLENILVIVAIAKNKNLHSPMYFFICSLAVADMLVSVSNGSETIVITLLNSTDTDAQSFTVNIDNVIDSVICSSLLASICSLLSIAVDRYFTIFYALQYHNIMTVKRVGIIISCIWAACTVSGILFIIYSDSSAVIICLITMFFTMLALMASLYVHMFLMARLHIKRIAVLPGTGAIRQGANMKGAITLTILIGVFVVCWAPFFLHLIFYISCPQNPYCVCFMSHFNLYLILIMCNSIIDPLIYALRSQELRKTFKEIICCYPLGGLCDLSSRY

[14] = bead-based luminescence quenchers, dual-tagged ARNT – biochemical, AlphaScreen, cherry-pick, artefact control for ARNT-TACC3 interaction inhibitor project, dose response (AID 651705); format: functional;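 further: AlphaScreen bead proximity signal that flags compounds interfering with the detection technology; potency reflects signal decrease which marks the compound as an assay artifact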
[15] = inhibition of ARNT PAS-B/TACC3 complex formation – biochemical, AlphaScreen, cherry-picked samples, confirmation (AID 651703); format: functional, Homo sapiens;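 further: His-tagged ARNT PAS-B domain paired with GST-TACC3 E629A dimer coactivator fragment; potency of inhibitors that break up the complex and lower AlphaScreen signal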
[16] = HIV-1 AD8 envelope cell-cell fusion blockers – cherry-pick, dose response (AID 652062); format: functional, cell-based;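 further: luciferase signal from cell-cell fusion driven by HIV-1 clade B AD8 Env; potency is for inhibitors of fusion seen as a drop in luminescence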
[17] = blockers of HIV-1 envelope-mediated cell-cell fusion – cherry-pick, dose response (AID 652057); format: functional, cell-based
[18] = off-target signal loss in HeLa-CEM21 co-culture – HeLa F-luc CTL cells, cherry-picked, counter-screen for HIV-1 Env fusion inhibitor project, dose response (AID 652040); format: functional, cell-based;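 further: potency for signal decrease marking cytotoxic or nonspecific inhibition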
Interleukin-8 = target: T6, Interleukin-8 (Homo sapiens, UniProt P10145); test: Dose Response confirmation of uHTS small molecule hits for cystic fibrosis induced NFkb Inhibitors in a PAF-induced IL8 counterscreen.; format: functional; settings: read-out: IC50_Mean
T6 sequence (P10145 whole entry): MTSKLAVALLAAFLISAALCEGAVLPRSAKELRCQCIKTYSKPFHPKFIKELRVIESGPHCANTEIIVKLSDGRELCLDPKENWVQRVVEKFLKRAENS

[19] = target: Mitogen-activated protein kinase 10 (Homo sapiens, UniProt P53779); test: Dose response biochemical screening assay for inhibitors of c-Jun N-Terminal Kinase 3 (JNK3). [Related pubchem assays: 746 ]
Mitogen-activated protein kinase 10, sequence (P53779 whole entry): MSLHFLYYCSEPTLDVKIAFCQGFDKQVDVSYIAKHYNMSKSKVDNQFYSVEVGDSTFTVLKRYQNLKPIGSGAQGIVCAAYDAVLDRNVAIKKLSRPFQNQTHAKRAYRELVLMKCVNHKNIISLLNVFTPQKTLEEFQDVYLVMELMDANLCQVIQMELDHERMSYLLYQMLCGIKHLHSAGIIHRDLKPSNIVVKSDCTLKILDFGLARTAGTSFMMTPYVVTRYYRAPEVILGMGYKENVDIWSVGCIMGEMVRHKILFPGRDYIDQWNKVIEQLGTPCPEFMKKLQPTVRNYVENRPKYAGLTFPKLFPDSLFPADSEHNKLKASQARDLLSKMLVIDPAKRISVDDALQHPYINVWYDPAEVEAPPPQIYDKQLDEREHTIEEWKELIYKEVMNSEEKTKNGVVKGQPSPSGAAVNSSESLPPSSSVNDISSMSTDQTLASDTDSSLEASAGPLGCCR

Adenosylmethionine-8-amino-7-oxononanoate aminotransferase, sequence (P9WQ81 whole entry): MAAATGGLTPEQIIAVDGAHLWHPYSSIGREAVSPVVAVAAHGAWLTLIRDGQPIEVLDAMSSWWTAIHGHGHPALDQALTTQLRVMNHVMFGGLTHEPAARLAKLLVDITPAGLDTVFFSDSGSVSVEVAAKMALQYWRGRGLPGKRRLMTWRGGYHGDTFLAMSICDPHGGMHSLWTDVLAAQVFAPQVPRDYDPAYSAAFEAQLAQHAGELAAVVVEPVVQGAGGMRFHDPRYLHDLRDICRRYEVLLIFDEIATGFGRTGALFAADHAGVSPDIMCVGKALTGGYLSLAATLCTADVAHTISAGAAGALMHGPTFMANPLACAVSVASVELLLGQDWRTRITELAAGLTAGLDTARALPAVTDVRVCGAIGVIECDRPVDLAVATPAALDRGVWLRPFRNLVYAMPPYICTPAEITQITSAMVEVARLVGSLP

With CC(=O)c1ccc(C(=O)N2CCCC(Nc3ccc(C(C)C)cc3)C2)s1 (stereo not drawn) the AC50 [1] was 0.833 µM (active), the EC50 (cells [2]) was > 350 µM (not active) and the EC50 (cells [3]) was > 350 µM (not active).
With O=C(Nc1ccc(F)c(F)c1)C1CCN(S(=O)(=O)c2cccs2)CC1 the AC50 [1] was 0.564 µM (active).
With CCOC(=O)CSc1c(-c2cccs2)[nH]c2ccccc12 the EC50 [4] was 13.2 µM (inactive), the EC50 [5] was 53.8 µM (not active) and the IC50 (Protein Wnt-3a) was 17 µM (active). The EC50 [6] was 13.8 µM (not active).
With O=[N+]([O-])c1ccc(NS(=O)(=O)c2ccccc2)c(Cl)c1 the IC50 [7] was 3.22 µM (active), the IC50 [8] was 4.45 µM (active) and the EC50 [9] was > 53 µM (inactive). For the same molecule, the IC50 [10] was > 20 µM (inactive).
With O=C1NC(=O)C(=Cc2ccc(Cl)cc2Cl)S1 the IC50 [7] was 4.65 µM (active).
With CN(/N=C/c1c[nH]c2ccccc12)c1cnn(-c2ccc(F)c(Cl)c2)c(=O)c1Cl the IC50 (Caspase-3) was > 99 µM (inactive), the EC50 (cells [2]) was 55.6 µM (active) and the IC50 [11] was > 99 µM (inactive). The IC50 [12] was > 99 µM (inactive), the EC50 (cells [3]) was > 350 µM (not active) and the IC50 [13] was > 99 µM (inactive).
For COc1cccc(-c2cnc3c(NC=O)cc(-c4ccc(O)c(OC)c4)cn23)c1, the IC50 (H9c2) was > 79 µM (inactive) and the EC50 (Melanocortin receptor 4) was > 89.2 µM (inactive).
In the case of Cc1ccccc1/C=N/N1C(=O)CSC1=S, the AC50 [14] was 135 µM (active) and the AC50 [15] was 109 µM (active).
In the case of COc1ccc2ncn(-c3ccccc3)c2c1, the AC50 [16] was 40.2 µM (active), the AC50 [17] was 11.6 µM (active) and the AC50 [18] was 20.1 µM (active). The IC50 (Interleukin-8) was 17.3 µM (inactive) and the IC50 [19] was 34.9 µM (not active).
